# In patent publication US9725448B2, “Neprilysin inhibitors” (THERAVANCE BIOPHARMA R&D IP, LLC, priority 2011, dated 2017):
# Molecular target: T1, human NEP (Homo sapiens, UniProt P08473)
# T1 construct: purchased R&D Systems, Minneapolis, Minn; 1182-ZN
# Assay: In vitro enzyme inhibition assay at human NEP (fluorogenic peptide substrate)
# Format: biochemical
# Details: pKi values at human NEP (recombinant), given as ranges
# Procedure: The inhibitory activities of compounds at human and rat neprilysin (EC 3.4.24.11; NEP) and human angiotensin converting enzyme (ACE) were determined using in vitro assays as described below.
# Recombinant human NEP and recombinant human ACE were obtained commercially (R&D Systems, Minneapolis, Minn., catalog numbers 1182-ZN and 929-ZN, respectively). The fluorogenic peptide substrate Mca-D-Arg-Arg-Leu-Dap-(Dnp)-OH (Medeiros et al. (1997) Braz. J. Med. Biol. Res. 30:1157-62; Anaspec, San Jose, Calif.) and Abz-Phe-Arg-Lys(Dnp)-Pro-OH (Araujo et al. (2000) Biochemistry 39:8519-8525; Bachem, Torrance, Calif.) were used in the NEP and ACE assays respectively.
# The assays were performed in 384-well white opaque plates at 37° C. using the fluorogenic peptide substrates at a concentration of 10 μM in Assay Buffer (NEP: 50 mM HEPES, pH 7.5, 100 mM NaCl, 0.01% polyethylene glycol sorbitan monolaurate (Tween-20), […]; ACE: 50 mM HEPES, pH 7.5, 100 mM NaCl, 0.01% Tween-20, 1 μM ZnSO4).
# Test compounds were assayed over the range of concentrations from 10 μM to 20 pM. Test compounds were added to the enzymes and incubated for 30 minute at 37° C. prior to initiating the reaction by the addition of substrate. Reactions were terminated after 20 minutes of incubation at 37° C. by the addition of glacial acetic acid to a final concentration of 3.6% (v/v).
# Plates were read on a fluorometer with excitation and emission wavelengths set to 320 nm and 405 nm, respectively. Inhibition constants were obtained by nonlinear regression of the data using the equation (GraphPad Software, Inc., San Diego, Calif.): ν=ν0/[1+(I/K′)] where ν is the reaction rate, ν0 is the uninhibited reaction rate, I is the inhibitor concentration and K′ is the apparent inhibition constant.
# Compounds of the invention were tested in this assay and found to have pKi values at human NEP as follows.
# T1 sequence (P08473 52-750 limits assumed): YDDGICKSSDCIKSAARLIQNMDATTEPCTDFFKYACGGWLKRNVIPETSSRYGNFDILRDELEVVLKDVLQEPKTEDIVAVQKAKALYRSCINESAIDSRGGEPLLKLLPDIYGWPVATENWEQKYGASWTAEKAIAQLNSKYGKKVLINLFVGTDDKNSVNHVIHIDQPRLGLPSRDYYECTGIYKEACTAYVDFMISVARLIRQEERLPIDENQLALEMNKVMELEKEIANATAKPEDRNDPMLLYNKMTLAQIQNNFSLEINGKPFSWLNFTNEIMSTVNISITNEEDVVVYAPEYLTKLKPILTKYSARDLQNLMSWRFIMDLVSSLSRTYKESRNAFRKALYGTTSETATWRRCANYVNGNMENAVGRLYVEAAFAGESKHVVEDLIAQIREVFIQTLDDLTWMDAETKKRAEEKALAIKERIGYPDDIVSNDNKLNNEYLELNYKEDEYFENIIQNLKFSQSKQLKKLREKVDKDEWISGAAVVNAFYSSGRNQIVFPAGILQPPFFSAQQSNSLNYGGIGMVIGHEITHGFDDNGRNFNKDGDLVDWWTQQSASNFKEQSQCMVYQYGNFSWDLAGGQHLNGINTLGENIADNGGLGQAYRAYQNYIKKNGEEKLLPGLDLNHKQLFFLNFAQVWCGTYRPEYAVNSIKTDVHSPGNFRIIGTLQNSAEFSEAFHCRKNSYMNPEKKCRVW
row,Compound,Ki
1,"C[C@@](O)(C[C@@H](Cc1ccc(-c2ccccc2)cc1)NC(=O)c1cnn[nH]1)C(=O)O [Example 1B, (2R,4R)-5-Biphenyl-4-yl-2-hydroxy-2-methyl-4-[(3H-[1,2,3]triazole-4-carbonyl)-amino]-pentanoic acid]",0.00126 to 0.01 µM
2,"CC(O)(C[C@@H](Cc1ccc(-c2ccccc2)cc1)NC(=O)c1n[nH]c(Cl)n1)C(=O)O (stereo partly drawn) [Example 2-3, (R)-5-Biphenyl-4-yl-4-[(5-chloro-2H-[1,2,4]triazole-3-carbonyl)-amino]-2-hydroxy-2-methyl-pentanoic acid]",0.0126 to 0.1 µM
3,"CC(O)(C[C@@H](Cc1ccc(-c2ccccc2)cc1)NC(=O)c1cc(F)c2nn[nH]c2c1)C(=O)O (stereo partly drawn) [Example 2-4, (R)-5-Biphenyl-4-yl-4-[(7-fluoro-3H-benzotriazole-5-carbonyl)-amino]-2-hydroxy-2-methyl-pentanoic acid]",0.00126 to 0.01 µM
4,"CC(O)(C[C@@H](Cc1ccc(-c2ccccc2)cc1)NC(=O)c1cc(Cl)c2nn[nH]c2c1)C(=O)O (stereo partly drawn) [Example 2-5, (R)-5-Biphenyl-4-yl-4-[(7-chloro-3H-benzotriazole-5-carbonyl)-amino]-2-hydroxy-2-methyl-pentanoic acid]",0.00126 to 0.01 µM
5,"C[C@](O)(C[C@@H](Cc1ccc(-c2ccccc2)cc1)NC(=O)c1cnc2nn[nH]c2c1)C(=O)O [Example 2-6, (2S,4R)-5-Biphenyl-4-yl-2-hydroxy-2-methyl-4-[(1H-[1,2,3]triazolo[4,5-b]pyridine-6-carbonyl)-amino]-pentanoic acid]",0.0126 to 0.1 µM
6,"C[C@](O)(C[C@@H](Cc1ccc(-c2ccccc2)cc1)NC(=O)c1cnc(O)nc1)C(=O)O [Example 2-10, (2S,4R)-5-Biphenyl-4-yl-2-hydroxy-4-[(2-hydroxy-pyrimidine-5-carbonyl)-amino]-2-methyl-pentanoic acid]",0.00126 to 0.01 µM
7,"CC(O)(C[C@@H](Cc1ccc(-c2ccccc2)cc1)NC(=O)c1cc(O)n[nH]1)C(=O)O (stereo partly drawn) [Example 2-12, (R)-5-Biphenyl-4-yl-2-hydroxy-4-[(5-hydroxy-2H-pyrazole-3-carbonyl)-amino]-2-methyl-pentanoic acid]",0.00126 to 0.01 µM
8,"C[C@@](O)(C[C@@H](Cc1ccc(-c2ccccc2)cc1)NC(=O)c1cc(C(=O)O)n[nH]1)C(=O)O [Example 2-13, 5-((1R,3R)-1-Biphenyl-4-ylmethyl-3-carboxy-3-hydroxy-butylcarbamoyl)-1H-pyrazole-3-carboxylic acid]",≤ 0.001 µM
9,"CC(O)(CN(Cc1ccc(-c2ccccc2)cc1)NC(=O)c1cc(O)no1)C(=O)O (stereo not drawn) [Example 3B, 3-[N-Biphenyl-4-ylmethyl-N′-(3-hydroxy-isoxazole-5-carbonyl)-hydrazino]-2-hydroxy-2-methyl-propionic acid]",0.00126 to 0.01 µM
10,"CC(O)(CN(Cc1ccc(-c2ccccc2)cc1)NC(=O)c1cnn[nH]1)C(=O)O (stereo not drawn) [Example 4-1, 3-[N-Biphenyl-4-ylmethyl-N′-(3H-[1,2,3]triazole-4-carbonyl)-hydrazino]-2-hydroxy-2-methyl-propionic acid]",0.0126 to 0.1 µM
11,"CC(O)(CN(Cc1ccc(-c2ccccc2)cc1)NC(=O)c1cnc(O)nc1)C(=O)O (stereo not drawn) [Example 4-4, 3-[N-Biphenyl-4-ylmethyl-N′-(2-hydroxy-pyrimidine-5-carbonyl)-hydrazino]-2-hydroxy-2-methyl-propionic acid]",0.0126 to 0.1 µM
12,"CC(O)(CN(Cc1ccc(-c2ccccc2)cc1)NC(=O)c1cc(O)n[nH]1)C(=O)O (stereo not drawn) [Example 4-5, 3-[N-Biphenyl-4-ylmethyl-N′-(5-hydroxy-2H-pyrazole-3-carbonyl)-hydrazino]-2-hydroxy-2-methyl-propionic acid]",0.0126 to 0.1 µM
13,"CC(O)(CN(Cc1ccc(-c2ccccc2)cc1)NC(=O)c1cc(C(=O)O)n[nH]1)C(=O)O (stereo not drawn) [Example 4-6, 5-[N′-Biphenyl-4-ylmethyl-N′-(2-carboxy-2-hydroxy-propyl)-hydrazinocarbonyl]-1H-pyrazole-3-carboxylic acid]",0.00126 to 0.01 µM
14,"CC(O)(CN(Cc1ccc(-c2ccccc2)cc1)NC(=O)c1cc(C(=O)N2CCCC2)n[nH]1)C(=O)O (stereo not drawn) [Example 4-8, 3-{N-Biphenyl-4-ylmethyl-N′-[5-(pyrrolidine-1-carbonyl)-2H-pyrazole-3-carbonyl]-hydrazino}-2-hydroxy-2-methyl-propionic acid]",0.0126 to 0.1 µM
15,"CC(O)(CN(Cc1ccc(-c2cccc(F)c2)cc1)NC(=O)c1cc(O)no1)C(=O)O (stereo not drawn) [Example 5, 3-[N-(3′-Fluorobiphenyl-4-ylmethyl)-N′-(3-hydroxy-isoxazole-5-carbonyl)-hydrazino]-2-hydroxy-2-methyl-propionic Acid]",0.00126 to 0.01 µM

# Results, then the compound that gave them:
row,Ki,Compound
1,0.0126 to 0.1 µM,"C[C@](O)(C[C@@H](Cc1ccc(-c2ccccc2)cc1)NC(=O)c1cnn[nH]1)C(=O)O [Example 2-1, (2S,4R)-5-Biphenyl-4-yl-2-hydroxy-2-methyl-4-[(3H-[1,2,3]triazole-4-carbonyl)-amino]-pentanoic acid]"
2,0.0126 to 0.1 µM,"CC(O)(C[C@@H](Cc1ccc(-c2ccccc2)cc1)NC(=O)c1nc[nH]n1)C(=O)O (stereo partly drawn) [Example 2-2, (R)-5-Biphenyl-4-yl-2-hydroxy-2-methyl-4-[(2H-[1,2,4]triazole-3-carbonyl)-amino]-pentanoic acid]"
3,≤ 0.001 µM,"CC(O)(C[C@@H](Cc1ccc(-c2ccccc2)cc1)NC(=O)c1cc(O)no1)C(=O)O (stereo partly drawn) [Example 2-7, (R)-5-Biphenyl-4-yl-2-hydroxy-4-[(3-hydroxy-isoxazole-5-carbonyl)-amino]-2-methyl-pentanoic acid]"
4,≤ 0.001 µM,"C[C@@](O)(C[C@@H](Cc1ccc(-c2ccccc2)cc1)NC(=O)c1cnc(O)nc1)C(=O)O [Example 2-9, (2R,4R)-5-Biphenyl-4-yl-2-hydroxy-4-[(2-hydroxy-pyrimidine-5-carbonyl)-amino]-2-methyl-pentanoic acid]"
5,0.00126 to 0.01 µM,"C[C@](O)(C[C@@H](Cc1ccc(-c2ccccc2)cc1)NC(=O)c1cc(C(=O)O)[nH]n1)C(=O)O [Example 2-11, 5-((1R,3S)-1-Biphenyl-4-ylmethyl-3-carboxy-3-hydroxy-butylcarbamoyl)-2H-pyrazole-3-carboxylic acid]"
6,0.126 to 1 µM,"CC(O)(CN(Cc1ccc(-c2ccccc2)cc1)NC(=O)c1nnc(Cl)[nH]1)C(=O)O (stereo not drawn) [Example 4-2, 3-[N-Biphenyl-4-ylmethyl-N′-(5-chloro-4H-[1,2,4]triazole-3-carbonyl)-hydrazino]-2-hydroxy-2-methyl-propionic acid]"
7,0.126 to 1 µM,"COc1cc(C(=O)NN(Cc2ccc(-c3ccccc3)cc2)CC(C)(O)C(=O)O)on1 (stereo not drawn) [Example 4-3, 3-[N-Biphenyl-4-ylmethyl-N′-(3-methoxy-isoxazole-5-carbonyl)-hydrazino]-2-hydroxy-2-methyl-propionic acid]"
8,0.0126 to 0.1 µM,"CN(C)C(=O)c1cc(C(=O)NN(Cc2ccc(-c3ccccc3)cc2)CC(C)(O)C(=O)O)[nH]n1 (stereo not drawn) [Example 4-7, 3-[N-Biphenyl-4-ylmethyl-N′-(5-dimethylcarbamoyl-2H-pyrazole-3-carbonyl)-hydrazino]-2-hydroxy-2-methyl-propionic acid]"
9,≤ 0.001 µM,"C[C@@](O)(CN(Cc1ccc(-c2cc(Cl)ccc2F)cc1)NC(=O)c1cc(O)no1)C(=O)O [Example 6A, (R)-3-[N-(5′-Chloro-2′-fluorobiphenyl-4-ylmethyl)-N′-(3-hydroxy-isoxazole-5-carbonyl)-hydrazino]-2-hydroxy-2-methyl-propionic acid]"
